Like-named read-outs stand apart in the source and are kept apart here.
How the values were obtained:
[1] = system: UBXN2A promoter; assay: UBXN2A promoter luciferase high-throughput drug screen in HCT-116 cells; format: cell-based, human
Method: Our in vivo results encouraged us to screen for compounds that can enhance expression of UBXN2A. Using the UBXN2A promoter upstream of a luciferase construct that was transiently transfected to HCT-116 cells, we performed a high-throughput drug screen with 1800 FDA approved drugs, synthetic compounds, and natural products. Forty-eight hours after transfection, cells were treated with compounds for 24 hours in triplicate (FIG. 16A). […] We looked at protein expression of UBXN2A as well as P47 (another member of the UBXD family) to confirm the selectivity of VH as a selective enhancer of UBXN2A protein in cells. […] We observed a different level of VH-dependent UBXN2A induction in different segments of the gastrointestinal system (esophagus to rectum; data not shown).
A cell-based screen was conducted in search of compounds that induce the expression of the UBXN2A gene. The 3.9K base of DNA upstream from the UBXN2A gene on human chromosome 2, including endogenous promoters and necessary enhancers as well as untranslated exon 1, was cloned into MCS-mGL.1, a Gaussia luciferase vector, and transiently transfected into HCT-116 colon cancer cells, with empty MCS-mGL.1 for background expression. […] A glow luciferase activity assay was conducted in triplicate followed by semi-quantitative RT-PCR and WB analysis for UBXN2A, p47 (negative control), or GAPDH± Veratrine or its purified form VTD. […]

[2] = system: LoVo
Method: Besides the cell viability assay, we decided to measure the apoptotic activity in the above combination therapy.
Cells were treated with 5-FU (5-100 μM) and etoposide (1-50 μM) along with VTD (30 and 100 μM respectively) in two different set of experiments for 24 hours.
An MTT (3[4, 5-dimethylthiazol-2-yl]-2, 5-diphenyltetrazolium bromide) assay was performed to measure the viability of cells. Briefly, cells were seeded at a density of 10×10^3 cells per well in phenol-red free growth media. After 24 hours, cells were treated with various concentrations of VTD±5-FU or etoposide. After incubation, an MTT dye was added to the cells for 2-4 hours. The absorbance of samples was measured at 630 nm using an EXL808 absorption spectrophotometer (Biotek, Winooski). The viability of cells was calculated as % of control. Cell detachment and clonogenic survival assays were conducted as previously described. Early apoptosis, caspase-3, cleaved PARP and Sytox Red (Life Technology, NY, USA) were measured by the Accuri C6 flow cytometer system (BD Pharmingen, MD, USA).[54]
(A-H) (A-C) HCT-116 and (D-F) LoVo were treated with VTD (10-300 μM) for 24, 48, and 72 hours. A suboptimal dose of Etoposide (ETO) ([…]) was added to cells for the last 24 hours only. The viability of cells was determined as % of control (untreated cells) using an MTT assay. […] (G-H) HCT-116 (G) and LoVo (H) cells were treated with VTD (10-200 μM) and a suboptimal dose of ETO (5 μM) for 24 hours. Cells were then stained with Annexin V apoptotic marker. […] (I-L) HCT-116 and LoVo cells were treated with different doses of 5-FU (5-100 μM, I-J) and ETO (1-50 μM, K-L) along with VTD (30 μM and 100 μM respectively) for 24 hours.

[3] = system: HCT-116; assay: Annexin V early apoptosis, VTD plus etoposide; format: cell-based, human; details: VTD 10-200 μM plus etoposide 5 μM, 24 hours
Method: (§1) The viability of cells was calculated as % of control.
(§2) Cells were then stained with Annexin V apoptotic marker.

[4] = system: LoVo; assay: Annexin V early apoptosis, VTD plus etoposide; format: cell-based, human; details: VTD 10-200 μM plus etoposide 5 μM, 24 hours
Method: as §1, §2

[5] = system: LoVo; assay: Flow cytometry of CD44+ cancer stem cells; format: cell-based, human; details: intermediate-dose of VTD
Text: (§3) Based on the significant effect of long-term exposure in LoVo and U2OS, we hypothesized that VTD could be a potential complementary strategy alongside 5-FU, an effective drug with a high rate of resistant events in colon tumors. To answer this question, we first determined the minimum concentration of 5-FU that has no effect or a very mild effect on cell viability after 10 days' exposure in three cell lines HCT-116, LoVo, and U2OS (data not shown). We performed the 10 days' treatment using a combination of a low dose of VTD (50 μM or 100 μM) plus a suboptimal dose of 5-FU (1 μM or 5 μM).
(§4) FIG. 20: Sensitization of colon cancer cells to a long-term suboptimal dose of 5-fluorouracil exposure when combined with VTD. (A-D) (A) HCT-116, (B) LoVo, (C) SW-480, and (D) U2OS were treated with VTD (10-300 μM) for 10 days. […] (E-G) (E) HCT-116, (F) LoVo, and (G) U-2OS were treated with suboptimal doses of 5-FU and VTD (50 and 100 μM) for 10 days. […] (J) Tumor tissue lysates from 48 patients with colon cancer along the matched adjacent normal colon tissue lysates were probed with anti-UBXN2A and anti-Actin antibodies, followed by quantitation and normalization of signals. […]

[6] = system: U2OS; assay: Flow cytometry of CD44+ cancer stem cells; format: cell-based, human; details: intermediate-dose of VTD
Text: as §3, §4

COc1ccc(C(=O)O[C@H]2CC[C@@]3(C)[C@@H]4CC[C@H]5[C@]6(O)C[C@H](O)[C@@]7(O)[C@@H](CN8C[C@@H](C)CC[C@H]8[C@@]7(C)O)[C@]6(O)C[C@@]53O[C@]24O)cc1OC [VTD, Veratridine]
UBXN2A promoter transactivation [1]: transactivates the UBXN2A promoter | combination index (CI) ([2]; 5-FU 5 μM with 100 μM VTD): 0.32 | cell viability (MTT), 5-FU effect enhanced by VTD ([2]; 5-FU 5-100 μM along with VTD 100 μM, 24 hours): significantly enhanced the 5-FU and etoposide effects on cell viability | cell viability (MTT), combination ([2]; VTD 10-300 μM 24, 48, 72 hours plus suboptimal etoposide 5 μM for the last 24 hours): significantly potentiates the cytotoxic effect of VTD | combination index (CI) ([2]; etoposide 1 μM with 30 μM VTD): 0.275 | VTD concentration at which VTD and etoposide start to act synergistically ([2]; etoposide 5 μM): 100 µM | cell viability (MTT), etoposide effect enhanced by VTD ([2]; etoposide 1-50 μM along with VTD 30 μM, 24 hours): significantly enhanced the 5-FU and etoposide effects on cell viability | combination index (CI) ([2]; higher concentrations of VTD with etoposide 5 μM): ≤ 0.4 | combination index (CI) ([2]; low doses of VTD with etoposide, antagonistic): > 1 | early apoptosis (Annexin V) [3]: significantly increased the early apoptosis | early apoptosis (Annexin V) [4]: significantly increased the early apoptosis | abundance of CD44+ cancer stem cells [5]: reduces the abundance of the CD44+ cancer stem cells | abundance of CD44+ cancer stem cells [6]: reduces the abundance of the CD44+ cancer stem cells
